Measurements reported in patent publication EP0164320A1, “Pharmaceutical preparations for spinal analgesia containing guanfacine, and method for their preparation” (priority 1984, dated 1985).

Legend:
Type in all cases: in vivo
[1] = test system: mice; test: behavioural response (paw licking) after subcutaneous formaline in mice; settings: 1% formaline s.c. 20 µl, 5 µl, 0.01% (0.5 µg) of guanfacine i.th. 15 minutes before, ± S.E.M., 10 animals
Procedure: Behavioural response in mice after subcutaneous injection of 20 µl of a physiological solution of sodium chloride or a 1 % solution of formaline on the dorsum of either hind paw.
5 µl, 0.01% ([…]) of guanfacine or the same volume of a physiological solution of sodium chloride were injected intrathetecally 15 minutes before the subcutaneous injection of formaline. The accumulated reaction, i.e. the total time of licking on the injected paw, was measured during the 5 minutes after the injection of formaline.
The results are expressed as mean accumulated response during 5 minutes in seconds ± S.E.M. Each group consisted of 10 animals.

[2] = test system: mice; test: hot-plate test after intrathecal injection in mice; parameters: unit not given here; settings: 15 minutes after intrathecal injection of 5 µl, mean ± S.E.M.
Procedure: (§1) Antinociceptive effects in mice were established in the following test. The effect 15 minutes after intrathecal injection of a volume of 5 µl containing different doses of guanfacine was established. The vehicle used was a physiological solution of sodium chloride.

[3] = test system: male Sprague-Dawley rats; test: tail-flick test after intrathecal injection in rats; parameters: unit not given here; settings: rat, mean ± S.E.M.
Procedure: (§2) The antinociceptive effect of guanfacine may be established by the hot plate and tail-flick test.
(§3) Testing of tail-flick was performed using an IITC Inc. Mod. 33 Analgesia- meter@, with the light focused on the tip of the tail (d'Amour, F.E. and Smith, D.L. J. Pharmacol. Exp. Ther. 72, 74, 1941). The intensity of the beam was adjusted to give a reaction time of 3-4 sec. before intrathecal injection of the drug solutions. For the hot plate testing, a modification of the Eddy and Leimbach method (Eddy, N.B. and Leimbach, D. J. Pharmacol. Exp. Ther. 107, 385, 1952) was used. An IITC Inc. Mod. 35-D Analgesiameter® was set at a temperature of 58^±0.2°C. The criteria for a pain response was licking of either of the hindpaws.
(§4) We examined the pain responsiveness of male Sprague-Dawley rats in a weight range of 300-350 g. […] The catheter was fixed at a surgical operation. The animals were kept in the animal colony in separate cages until testing took place 1 week after operation. The drug was administered in a volume of 15 µl, and testing of hot plate and tail-flick reaction latencies took place at the intervals given in the tables. Animals given the combination of guanfacine and bupivacaine were not tested until the local anaesthetic effect of bupivacaine had disappeared, which normally took between 10 and 15 minutes.
(§5) Guanfacine or a physiologically acceptable salt thereof was administered alone or in combination with the local anaesthetic agent bupivacaine or a physiologically acceptable salt thereof. When guanfacine'was administered together with bupivacaine first an initial phase of regional anaesthesia restricted to the hind-legs and the lower derma- tomes was obtained. When this effect had disappeared the animals were still non-responsive in the hot plate and tail-flick test for up to at least 7 hours after the injection, cf Table 2 below.

[4] = test system: mice; test: tail-flick test after intrathecal injection in mice; parameters: unit not given here; settings: 15 minutes after intrathecal injection of 5 µl, mean ± S.E.M.
Procedure: as §1

[5] = test system: male Sprague-Dawley rats; test: hot plate test after intrathecal injection in rats; parameters: unit not given here; settings: rat, mean ± S.E.M.
Procedure: as §2, §3, §4, §5

[6] = 0.001 % guanfacine, dose 0.05 µg
[7] = 0.002 % guanfacine, dose 0.1 µg
[8] = 0.004 % guanfacine, dose 0.2 µg
[9] = 0.006 % guanfacine, dose 0.3 µg
[10] = intrathecal 75 µg guanfacine (15 µl 0.5 %), 1 min, 100x(test-latency - pre-drug latency)/pre-drug latency, n=4
[11] = intrathecal 75 µg guanfacine, 5 min
[12] = intrathecal 75 µg guanfacine, 10 min
[13] = intrathecal 75 µg guanfacine, 20 min
[14] = intrathecal 75 µg guanfacine, 30 min
[15] = intrathecal 75 µg guanfacine, 45 min
[16] = intrathecal 75 µg guanfacine, 8 hours
[17] = intrathecal 75 µg guanfacine, 22 hours

N=C(N)NC(=O)Cc1c(Cl)cccc1Cl [guanfacine, 2,6-dichlorophenyl-acetyl-guanidine]
mean accumulated response (total time of licking on the injected paw) during 5 minutes [1]: 9 ± 2 s
Antinociception hot-plate (cut-off=30 sec) [2, 6]: 128±29
Antinociception hot-plate (cut-off=30 sec) [2, 7]: 152±33
Antinociception hot-plate (cut-off=30 sec) [2, 8]: 152±47
Antinociception hot-plate (cut-off=30 sec) [2, 9]: 168±40
Antinociception tail-flick (cut-off=10 sec.) [3, 10]: 27.5±17
Antinociception tail-flick (cut-off=10 sec.) [3, 11]: 92.75±26
Antinociception tail-flick (cut-off=10 sec.) [3, 12]: 110±33
Antinociception tail-flick (cut-off=10 sec.) [3, 13]: 147±13
Antinociception tail-flick (cut-off=10 sec.) [3, 14]: 153±10
Antinociception tail-flick (cut-off=10 sec.) [3, 15]: 156±8
Antinociception tail-flick (cut-off=10 sec.) [3, 16]: 138±20
Antinociception tail-flick (cut-off=10 sec.) [3, 17]: 62±8
Antinociception tail-flick (cut-off=10 sec) [4, 6]: 29±23
Antinociception tail-flick (cut-off=10 sec) [4, 7]: 26±13
Antinociception tail-flick (cut-off=10 sec) [4, 8]: 59±17
Antinociception tail-flick (cut-off=10 sec) [4, 9]: 86±18
Antinociception hot plate (cut-off=30 sec.) [5, 10]: -15±12
Antinociception hot plate (cut-off=30 sec.) [5, 11]: -15±6
Antinociception hot plate (cut-off=30 sec.) [5, 12]: 29±18
Antinociception hot plate (cut-off=30 sec.) [5, 13]: 62±29
Antinociception hot plate (cut-off=30 sec.) [5, 14]: 116±36
Antinociception hot plate (cut-off=30 sec.) [5, 15]: 239±23
Antinociception hot plate (cut-off=30 sec.) [5, 16]: 124±56
Antinociception hot plate (cut-off=30 sec.) [5, 17]: 41±12
Antinociception hot plate (cut-off=30 sec.) ([5]; intrathecal 75 µg guanfacine, 27 hours): 25±16
